Experimental data as given in patent US11534457B2, “Use of dextran sulfate” (priority 2017, dated 2022).
Marks after values point to notes of the source that are not given here.

Test system: severe traumatic brain injury (sTBI)
Experiment: sTBI in rats, HPLC of purine-pyrimidine / energy metabolites in brain (Example 3)
Format: in vivo, Male Wistar rats
Conditions: sacrifice 7 days
Description: The experimental protocol used in this study was approved by the Ethical Committee of the Catholic University of Rome, according to international standards and guidelines for animal care. Male Wistar rats of 300-350 g body weight (b.w.) were fed with standard laboratory diet and water ad libitum in a controlled environment.
1) n=6 animals subjected to sTBI, with drug administration after 30 minutes and sacrifice at 2 days post-TBI (Acute phase 1)
2) n=6 animals subjected to severe-TBI, with drug administration after 30 minutes and sacrifice at 7 days post-TBI (Acute phase 2).
3) n=6 animals subjected to severe-TBI, with drug administration after 3 days and sacrifice at 7 days post-TBI (Chronic phase).
As the anesthetic mixture, animals received 35 mg/kg b.w. ketamine and 0.25 mg/kg b.w. midazolam by i.p. injection. sTBI was induced by dropping a 450 g weight from 2 m height on to the rat head that had been protected by a metal disk previously fixed on the skull, according to the “weight drop” impact acceleration model (Marmarou et al., A new model of diffuse brain injury in rats. Part I: Pathophysiology and biomechanics. J Neurosurg. 1994; 80: 291-300). […] At the end of each period of treatment, rats were anesthetized again and then immediately sacrificed.
The drug treatment was a subcutaneous injection of 0.5 ml of LMW-DS (15 mg/kg) and administered according to the aforementioned schematic protocol.
An in vivo craniectomy was performed in all animals during anesthesia, after carefully removing the rat's skull, the brain was exposed and removed with a surgical spatula and quickly dropped in liquid nitrogen. After the wet weight (w.w.) determination, tissue preparation was affected as previously disclosed (Tavazzi et al., Cerebral oxidative stress and depression of energy metabolism correlate with severity of diffuse brain injury in rats. Neurosurgery. 2005; 56: 582-589; Vagnozzi et al., Temporal window of metabolic brain vulnerability to concussions: mitochondrial-related impairment-part I. Neurosurgery. 2007; 61: 379-388; Tavazzi et al., Temporal window of metabolic brain vulnerability to concussions: oxidative and nitrosative stresses-part II. Neurosurgery. 2007; 61: 390-395; Amorini et al., Severity of experimental traumatic brain injury modulates changes in concentrations of cerebral free amino acids. J Cell Mol Med. 2017; 21: 530-542.). Briefly, whole brain homogenization was performed with 7 ml of ice-cold, nitrogen-saturated, precipitating solution composed by CH3CN+10 mM KH2PO4, pH 7.40, (3:1; v:v), and using an Ultra-Turrax set at 24,000 rpm/min (Janke & Kunkel, Staufen, Germany). After centrifugation at 20,690×g, for 10 min at 4° C., the clear supernatants were saved, pellets were supplemented with 3 ml of the precipitating solution and homogenized again as described above. A second centrifugation was performed (20,690×g, for 10 min at 4° C.), pellets were saved, supernatants combined with those previously obtained, extracted by vigorous agitation with a double volume of HPLC-grade CHCl3 and centrifuged as above. The upper aqueous phases containing water-soluble low-molecular weight compounds were collected, subjected to chloroform washings for two more times (this procedure allowed the removal of all the organic solvent and of any lipid soluble compound from the buffered tissue extracts), adjusted in volumes with 10 mM KH2PO4, pH 7.40, to have ultimately aqueous 10% tissue homogenates and saved at −80° C. until assayed. […]

[1] = Acute phase 2: 15 mg/kg s.c. 30 min post-sTBI
[2] = Chronic phase: 15 mg/kg s.c. 3 days post-sTBI

low molecular weight dextran sulfate [LMW-DS]
NO2, cerebral concentration [1]: 226.40 ± 30.95^b nmol/g (w.w.) | NO3, cerebral concentration [1]: 198.56 ± 25.93^e,i nmol/g (w.w.) | UDP, cerebral concentration [1]: 40.38 ± 8.50^a,i nmol/g (w.w.) | UDP-Gal, cerebral concentration [1]: 145.14 ± 27.76 nmol/g (w.w.) | UDP-GalNac, cerebral concentration [1]: 19.90 ± 3.12^a,e nmol/g (w.w.) | UDP-Glc, cerebral concentration [1]: 44.44 ± 7.59^i nmol/g (w.w.) | UDP-GlcNac, cerebral concentration [1]: 130.65 ± 28.41^a nmol/g (w.w.) | UMP, cerebral concentration [1]: 138.73 ± 32.01^b nmol/g (w.w.) | UTP, cerebral concentration [1]: 146.71 ± 32.68^e nmol/g (w.w.) | acetyl-CoA, cerebral concentration [1]: 36.86 ± 4.11^e nmol/g (w.w.) | adenine, cerebral concentration [1]: 58.16 ± 6.36^a,f nmol/g (w.w.) | ascorbic acid, cerebral concentration [1]: 3512.58 ± 224.62^a,e nmol/g (w.w.) | creatinine, cerebral concentration [1]: 37.27 ± 5.82^a,e,j nmol/g (w.w.) | cytidine, cerebral concentration [1]: 16.18 ± 4.21^e nmol/g (w.w.) | cytosine, cerebral concentration [1]: 15.70 ± 4.10^f nmol/g (w.w.) | guanine, cerebral concentration [1]: 4.73 ± 1.07 nmol/g (w.w.) | guanosine, cerebral concentration [1]: 17.90 ± 3.24^j nmol/g (w.w.) | hypoxanthine, cerebral concentration [1]: 12.90 ± 2.58^a,j nmol/g (w.w.) | inosine, cerebral concentration [1]: 85.52 ± 20.36^e nmol/g (w.w.) | malonyl-CoA, cerebral concentration [1]: 11.29 ± 2.27^b nmol/g (w.w.) | orotic acid, cerebral concentration [1]: 13.34 ± 3.65^a nmol/g (w.w.) | thymidine, cerebral concentration [1]: 0.49 ± 0.20^f nmol/g (w.w.) | uracil, cerebral concentration [1]: 19.40 ± 7.52^a,e nmol/g (w.w.) | uric acid, cerebral concentration [1]: 19.17 ± 2.15^a,h,i nmol/g (w.w.) | uridine, cerebral concentration [1]: 63.02 ± 9.66^b,e nmol/g (w.w.) | xanthine, cerebral concentration [1]: 10.41 ± 2.11^f nmol/g (w.w.) | β-pseudouridine, cerebral concentration [1]: 13.26 ± 3.16^a,e,j nmol/g (w.w.) | ADO, cerebral concentration [2]: 89.97 ± 12.98^a nmol/g (w.w.) | ADP, cerebral concentration [2]: 315.53 ± 46.53^a nmol/g (w.w.) | ADP-ribose, cerebral concentration [2]: 173.94 ± 8.45^a nmol/g (w.w.) | AMP, cerebral concentration [2]: 90.01 ± 21.24^a nmol/g (w.w.) | ATP, cerebral concentration [2]: 1381.03 ± 212.64^a nmol/g (w.w.) | CDP choline, cerebral concentration [2]: 8.37 ± 2.19 nmol/g (w.w.) | CDP, cerebral concentration [2]: 23.55 ± 6.45^a nmol/g (w.w.) | CMP, cerebral concentration [2]: 20.51 ± 3.73^a,f nmol/g (w.w.) | CTP, cerebral concentration [2]: 25.23 ± 2.93^a,f nmol/g (w.w.) | CoA-SH, cerebral concentration [2]: 27.58 ± 6.24^f nmol/g (w.w.) | GDP glucose, cerebral concentration [2]: 43.85 ± 5.06^b nmol/g (w.w.) | GDP, cerebral concentration [2]: 173.05 ± 28.68^a,e nmol/g (w.w.) | GMP, cerebral concentration [2]: 148.56 ± 31.21^a nmol/g (w.w.) | GSH, cerebral concentration [2]: 2608.67 ± 358.07^a,e nmol/g (w.w.) | GSSG, cerebral concentration [2]: 231.08 ± 44.34^b,f nmol/g (w.w.) | GTP, cerebral concentration [2]: 290.92 ± 34.68^a,f nmol/g (w.w.) | IMP, cerebral concentration [2]: 99.29 ± 13.82^a nmol/g (w.w.) | MDA, cerebral concentration [2]: 11.62 ± 3.90^a,e nmol/g (w.w.) | NADH, cerebral concentration [2]: 11.78 ± 3.32^e nmol/g (w.w.) | NADPH, cerebral concentration [2]: 7.34 ± 2.65^f nmol/g (w.w.) | NADP^+, cerebral concentration [2]: 16.44 ± 2.66^a,f nmol/g (w.w.) | NAD^+, cerebral concentration [2]: 301.13 ± 29.90^a nmol/g (w.w.) | NM, cerebral concentration [2]: 6375.36 ± 974.12^a,e nmol/g (w.w.) | NO2, cerebral concentration [2]: 217.67 ± 55.04^a nmol/g (w.w.) | NO3, cerebral concentration [2]: 241.27 ± 18.84^e nmol/g (w.w.) | UDP, cerebral concentration [2]: 57.40 ± 5.88^a,f nmol/g (w.w.) | UDP-Gal, cerebral concentration [2]: 122.29 ± 12.15 nmol/g (w.w.) | UDP-GalNac, cerebral concentration [2]: 21.84 ± 2.80^a,e nmol/g (w.w.) | UDP-Glc, cerebral concentration [2]: 35.79 ± 3.45^b nmol/g (w.w.) | UDP-GlcNac, cerebral concentration [2]: 129.42 ± 15.88^b nmol/g (w.w.) | UMP, cerebral concentration [2]: 103.11 ± 29.79 nmol/g (w.w.) | UTP, cerebral concentration [2]: 136.80 ± 33.25^f nmol/g (w.w.) | acetyl-CoA, cerebral concentration [2]: 35.68 ± 6.55^e nmol/g (w.w.) | adenine, cerebral concentration [2]: 52.94 ± 8.59^a,f nmol/g (w.w.) | ascorbic acid, cerebral concentration [2]: 3375.03 ± 856.41^a,e nmol/g (w.w.) | creatinine, cerebral concentration [2]: 51.25 ± 10.17^a,f nmol/g (w.w.) | cytidine, cerebral concentration [2]: 14.71 ± 2.83^e nmol/g (w.w.) | cytosine, cerebral concentration [2]: 15.58 ± 2.50^b,f nmol/g (w.w.) | guanine, cerebral concentration [2]: 5.31 ± 1.04^b nmol/g (w.w.) | guanosine, cerebral concentration [2]: 28.87 ± 7.60^a,f nmol/g (w.w.) | hypoxanthine, cerebral concentration [2]: 17.97 ± 4.49^a nmol/g (w.w.) | inosine, cerebral concentration [2]: 105.81 ± 25.57^f nmol/g (w.w.) | malonyl-CoA, cerebral concentration [2]: 10.00 ± 1.95^b nmol/g (w.w.) | orotic acid, cerebral concentration [2]: 12.05 ± 1.50^a nmol/g (w.w.) | thymidine, cerebral concentration [2]: 0.71 ± 0.11 nmol/g (w.w.) | uracil, cerebral concentration [2]: 16.57 ± 2.99^a,f nmol/g (w.w.) | uric acid, cerebral concentration [2]: 27.77 ± 3.60^a nmol/g (w.w.) | uridine, cerebral concentration [2]: 63.28 ± 3.37^f nmol/g (w.w.) | xanthine, cerebral concentration [2]: 9.35 ± 0.83^f nmol/g (w.w.) | β-pseudouridine, cerebral concentration [2]: 18.62 ± 2.80^a nmol/g (w.w.)
